According to patent publication US6858723B1, “Amphiphile cyclodextrins, preparation and use thereof for solubilizing organized systems and incorporating hydrophobic molecules” (Commissariat a l'Energie Atomique, priority 1999, dated 2005):

How the values were obtained:
Format in all cases: physicochemical
[1] = neutron diffusion of nanoparticles loaded with hydrophobic compounds
From the text: FIG. 7 represents the neutron diffusion spectra obtained with: • the solution of nanoparticles of cyclodextrin according to example 1 and the fatty acid (1:0.5 eq. mol) (spectrum 9); • the solution of nanoparticles of cyclodextrin according to example 1 and the fatty acid (1:1 eg. mol) (spectrum 10); and • the solution of nanoparticles of cyclodextrin alone (spectrum 11).
In this figure, the theoretical spectrum (spectrum 12) simulating spheres has also been represented.
The intensity I(q) is increased. The Intensity I(q) is proportional to the volume of nanoparticles. The presence of additional molecules (fatty acid molecules) in the nanoparticles increases the value of the contrast and therefore the intensity.
The incorporation in mono-6-(cholest-5-en-3α-ylamide)succinylamide-6-deoxy-2,2′,2″,2′″,2″″,2′″″,2″″″,6′,6″,6′″, 6″″,6′″″,6″″″-trideca-O-methyl-cyclomaltoheptaose nanoparticles of the following hydrophobic compounds: • dothiepin (neurotrope), • chloramphenicol (bacteriostatic), • vitamin A, and • esculin (vascular wall tonic), • were also detected by neutron diffusion. References

[2] = cmc by surface tension measurements
Procedure: The cmc of the cyclodextrin in example 1 was determined with surface tension measurements. The value of the cmc is 9.10^−6 mol/l.

[3] = static light diffusion of aqueous nanoparticle solutions
Procedure: The mean hydrodynamic diameter of the nanoparticles was measured by quasi-elastic light diffusion. The mean diameter MD value calculated according to the Stokes-Einstein approximation based on the interaction-free perfect sphere model is […] (60 Å). The static light diffusion analysis of aqueous solutions of nanoparticles at different concentrations (2.5.10^−3, 5.10^−3 and 10^−2 mol/l) gives a mean aggregate mass of 43,000 g/mol, which is equivalent to a mean of 24 monomers per nanoparticle.

[4] = neutron diffusion of nanoparticle solution; conditions: 10^−2 mol/l in D2O
From the text: The diffusion spectrum obtained from a 10^−2 mol/l solution in D2O of the cyclodextrin derivative in example 1 is represented in FIG. 1 (spectrum 1).
In FIG. 1, the theoretical spectra simulating spheres (spectrum 2), cylinders (spectrum 3) or lamellae (spectrum 4) formed from the cyclodextrin derivative in example 1, at a concentration of 10^−2 mol/l in D2O, are also shown. […] These aggregates are lined on the surface with cyclodextrin cavities available for the inclusion of hydrophobic active molecules, the core being composed of cholesterol groups. The theoretical spectrum simulating spheres gives a mean diameter of […] (50 Å) and a mean number of monomers per nanoparticle of 24.

Row | Compound | incorporation in nanoparticles of the cyclodextrin of example 1 [1] | further results
1 | CC(CCCCCCCCCCCCCI)CC(=O)O (stereo not shown) [16-iodo-3-methylhexadecanoic acid] | marked modifications on the diffusion spectra | –
2 | O=c1ccc2cc(O[C@@H]3O[C@H](CO)[C@@H](O)[C@H](O)[C@H]3O)c(O)cc2o1 [esculin] | detected | –
3 | mono-6-(cholest-5-en-3α-ylaamide)succinylamide-6-deoxy-2,2′,2″,2′″,2″″,2′″″,2″″″,6,6′,6″,6′″,6″″,6′″″,6″″″-trideca-O-methyl-cyclomaltoheptaose [example 1] | – | critical micellar concentration cmc [2]: 9.10^−6 mol/l; mean aggregate mass ([3]; aqueous solutions 2.5.10^−3, 5.10^−3 and 10^−2 mol/l): 43,000 g/mol; mean monomers per nanoparticle ([3]; from mean aggregate mass): 24; shape of aggregates ([4]; experimental spectrum superimposed with theoretical spectrum of spheres): spherical shape; mean number of monomers per nanoparticle ([4]; theoretical spectrum simulating spheres): 24

Now from value to compound, other results behind:

Row | incorporation in nanoparticles of the cyclodextrin of example 1 [1] | Compound | further results
4 | detected | O=C(N[C@H](CO)[C@H](O)c1ccc([N+](=O)[O-])cc1)C(Cl)Cl [chloramphenicol] | –
5 | detected | CN(C)CC/C=C1\c2ccccc2CSc2ccccc21 [dothiepin] | –
6 | detected | vitamin A | –
